Tests used:
[1] = test system: multiresistant Acinetobacter baunnamii; assay: Cultures of the injury area, peripheral blood and central catheter: antibiotic sensitivity; assay type: cell-based, Acinetobacter baumannii
Experimental: Initial assessment of the patient's injuries in the operating room on 29 Jan. […] As described, the DECA immunotherapy was applied to these areas. It is interesting to note that on this occasion cultures of internal secretions and tissue fragments were performed.

[2] = test system: Septicemia (Pseudomonas aeruginosa, Acinetobacter baunnamii, Proteus mirabiles); assay: Clinical case, patient J-P: septicemia with infected complex wounds; assay type: in vivo, human; details: 6 Feb. 2011; Polymyxin B 20,000 IU/kg twice daily and other antimicrobials
Description: The patient was admitted to the ICU of Hospital Alemao Oswaldo Cruz for debridement and application of treatment with DECA which took the following form: • Application of 1.8 cc of the DECA composition divided into 2 applications of 0.9 cc per composition along the 10 main lymphatic territories. • 3-4 cm distance margin between applications to facilitate the reading of the evolution of the treatment at an interval of 4±1 days. These applications were made together with the surgical debridement (on average 1 to 2 times per week). • Administration of 36 extra perilesional compositions of 1.8 cc of each DECA in two applications of 0.9 cc per set, skirting the following open injuries without possibility of suture: the left inguinal region, the lateral side of the left thigh, the anterior left thigh and medial aspect of the left thigh, instep region and left lateral malleolus of the right leg. • Application of recombinant human interleukin-2 at low doses, at a receptor saturation level with a concentration of 1 to 2 million units per m^2 of the patient's body surface located in the region of the extra DECA applications. […]

Molecule | Pre-immunotherapy cultures (29/01/2011): sensitivity of the isolate ([1]; Central catheter) | Pre-immunotherapy cultures (29/01/2011): sensitivity of the isolate ([1]; Injury in the left thigh) | toxicity [2] | Pre-immunotherapy cultures (29/01/2011): sensitivity of the isolate ([1]; Peripheric blood) | sensitivity of the isolate ([1]; isolates of left thigh wound, peripheral blood and central catheter, result of 1 Feb. 2011)
C[C@H]1[C@H](NC(=O)/C(=N\OC(C)(C)C(=O)O)c2csc(N)n2)C(=O)N1S(=O)(=O)O [Aztreonam] | baumannii only sensitive | baumannii only sensitive |  |  | 
Polymyxin B | baumannii only sensitive | baumannii only sensitive | acute renal failure with oliguria | baumannii only sensitive | sensitive

Reference: US9566330B2, “Immunogenic composition for immune system modulation and use thereof, method for treating and preventing diseases, method for inducing cell regeneration and method for restoring immune response” (priority 2011, dated 2017)
